{
  "source": "patent US10174314B2",
  "about": "“MiRNA for treating head and neck cancer” (INTERNA TECHNOLOGIES B.V., priority 2011, dated 2019)",
  "key": {"VU-SCC-120 [1]": {"test_system": "VU-SCC-120", "test": "ATM inhibitor treatment, CellTiter-Blue cell viability", "format": "cell-based, human", "description": "(§1) Both ciOKC and VU-SCC-120 cells were subjected to a concentration range of 40-0.075 μM ATM inhibitor CP466722 (Axon Medchem, Groningen, The Netherlands). After 72 hours cell viability was assessed with the CellTiter-Blue® cell viability assay."}, "ciOKC cells": {"test_system": "ciOKC cells", "test": "ATM inhibitor treatment, CellTiter-Blue cell viability", "format": "cell-based, human", "conditions": "72 hours", "description": "as §1"}, "ATM expression": {"test_system": "ATM expression", "test": "Knockdown of endogenous ATM expression by shRNA constructs, qRT-PCR in ciOKC", "format": "cell-based, human", "conditions": "ciOKC transduced with shRNA; qRT-PCR vs control construct", "description": "(§2) Viral supernatants were produced by co-transfection of HEK239T cells using FuGENE® 6 (Roche diagnostics, Woerden, The Netherlands) with the pLKO.1 short-hairpin vector together with the packaging and envelop vectors. Both ciOKC and VU-SCC-120 (HNSCC cell line) were transduced with lentiviruses at two following days for four hours in the presence of 3 μg/ml polybrene (Sigma-Aldrich, Zwijndrecht, The Netherlands). In total 48 hours after transduction, cells were subjected to puromycin selection. For ciOKC this was two days 5 μg/ml and subsequently 5 days of 10 μg/ml puromycin (Sigma-Aldrich). For VU-SCC-120 the selection was performed with 1 μg/ml for seven days.\nTotal RNA was isolated using the mirVana™ miRNA isolation kit (Ambion, Nieuwerkerk aan den IJssel, The Netherlands) according to the instructions of the manufacturer with as only modification that the columns were eluted by 2×25 μl elution buffer. Expression of hsa-miR-181a, hsa-miR-323, hsa-miR-326, hsa-miR-342, hsa-miR-345 and hsa-miR-371 was analyzed by Taqman® microRNA assays following the instructions of the manufacturer (Applied biosystems, Nieuwerkerk aan den IJssel, The Netherlands). ATM expression was analysed by Taqman® gene expression assay. […] Quantitative RT-PCR reactions without reverse transcriptase were carried out in parallel for each RNA sample to exclude signal by contaminating DNA. […]"}, "normal keratinocytes": {"test_system": "normal keratinocytes", "test": "miRNA-3157 mimic transfection, cell viability", "format": "cell-based, human", "conditions": "30 nM, 96 hours", "description": "(§3) Cells were plated and transfected with miRIDIAN microRNA mimics miR-181a, miR-181a*, miR-181a-2, miR-323-5p, miR-323-3p, miR-326-5p, miR-345-5p, miR-342-3p, miR-342-5p, miR-371-3p, miR-371-5p and non-targeting Mimic Negative Control#1 (Dharmacon, Thermo Fisher Scientific, Lafayette, Colo.) in 96-well flat bottom plates (Greiner Bio-One B.V., Alphen a/d Rijn, The Netherlands). MicroRNA mimic for miR-3157 was obtained from Ambion. The non-targeting siCONTROL#1, and the siRNA PLK1 SMARTpool (Dharmacon) were used as negative and positive controls, respectively. Cells were transfected with […] mimic/siRNA and cell line dependent amounts of DharmaFECT1 (Dharmacon) (Table 6). Cell viability was determined, 96 hours after transfection, by adding CellTiter-Blue reagent (Promega, Leiden, The Netherlands). After two hours of incubation at 37° C. fluorescence was analyzed at 540 nm excitation and 590 nm emission wavelength using an Infinite F200 microplate reader (Tecan, Giessen, The Netherlands).\nNormal oral keratinocytes were isolated and cultured as previously described (van Zeeburg et al., 2010). […]\n(§4) The cell proliferation has been assessed 96 hours after the transfection of nucleic acids using Dharmafect and the read-out based on the Alamar Blue (resazurin) fluorescent dye for the assessment of mammalian cell cytotoxicity."}, "tumour cell lines": {"test_system": "tumour cell lines", "test": "Synthetic mimic/siRNA transfection, CellTiter-Blue cell viability, panel of cell lines", "format": "cell-based, human", "conditions": "30 nM mimic, 96 hours after transfection", "description": "as §3, §4"}, "activated BRAF pathway": {"test_system": "activated BRAF pathway", "conditions": "in melanoma or colorectal cancer cells; reported; cited from earlier work"}, "precursor line M3": {"test_system": "precursor line M3", "test": "Synthetic mimic transfection, cell viability", "format": "cell-based, human", "conditions": "30 nM mimic, 96 hours after transfection", "description": "as §3, §4"}, "VU-SCC-120 [2]": {"test_system": "VU-SCC-120", "test": "miRNA-3157 mimic transfection, cell viability", "format": "cell-based, human", "conditions": "30 nM, 96 hours", "description": "as §3, §4"}, "VU-SCC-059": {"test_system": "VU-SCC-059", "test": "miRNA-3157 mimic transfection, cell viability", "format": "cell-based, human", "conditions": "30 nM, 96 hours", "description": "as §3, §4"}, "UM-SCC-11B": {"test_system": "UM-SCC-11B", "test": "miRNA-3157 mimic transfection, cell viability", "format": "cell-based, human", "conditions": "30 nM, 96 hours", "description": "as §3, §4"}, "[3]": {"test_system": "melanoma or colorectal cancer cells", "conditions": "Poell et al. 2012; cited from earlier work"}, "VU-SCC-120 [4]": {"test_system": "VU-SCC-120", "test": "Lentiviral shRNA ATM knockdown, cell survival", "format": "cell-based, human", "conditions": "VU-SCC-120 vs ciOKC", "description": "Lentiviral vectors with short-hairpin RNA sequences targeting ATM were obtained from the TRC short-hairpin library (Sigma-Aldrich, Zwijndrecht, the Netherlands) that is available at VU university medical center. Each shRNA sequence is complementary to an unique part of the ATM mRNA sequence.\nas §2\nTherefore we introduced five lentiviral shRNA constructs designed to specifically knockdown ATM expression. Each shRNA sequence was complementary to an unique part of the ATM mRNA sequence."}},
  "note": "Entries after “also recorded” stand apart in the source; their conditions may differ.",
  "data": [
    {"molecule": "COc1cc2ncnc(-n3nc(-c4ccccn4)nc3N)c2cc1OC", "note": "[CP466722]", "values": [
      {"measurement": "IC50", "setting": "VU-SCC-120 [1]; VU-SCC-120, 72 hours", "value": 2600, "unit": "nM"},
      {"measurement": "change of IC50 ciOKC to VU-SCC-120", "setting": "VU-SCC-120 [1]; p-value <0.05 by T-testing", "value": 3, "unit": "fold"},
      {"measurement": "IC50", "setting": "ciOKC cells", "value": 8.2, "unit": "µM"}
    ]},
    {"molecule": "ATM shRNA number 5: lentiviral pLKO.1 short-hairpin construct targeting ATM from the TRC library; probably SEQ ID NO: 359 (CCGGGCCGTCAACTAGAACATGATACTCGAGTATCATGTTCTAGTTGACGGCTTTTTG)", "values": [
      {"measurement": "downregulation of ATM expression levels", "setting": "ATM expression", "value": "no significant downregulation"}
    ]},
    {"molecule": "miRNA-3157: microRNA mimic for miR-3157 from Ambion; mature UUCAGCCAGGCUAGUGCAGUCU (SEQ ID NO: 364) (listed as RNA, chemistry not given here)", "values": [
      {"measurement": "cell viability", "setting": "normal keratinocytes", "value": "not lethal; also recorded: does not inhibit cell viability"},
      {"measurement": "cell viability in tumour cell lines", "setting": "tumour cell lines", "value": "lethal for three out of four tumor cell lines"},
      {"measurement": "inhibition of activated BRAF pathway", "setting": "activated BRAF pathway", "value": "selective inhibitor of activated BRAF pathway"},
      {"measurement": "cell viability in precursor line M3", "setting": "precursor line M3", "value": "not lethal"},
      {"measurement": "cell viability", "setting": "VU-SCC-120 [2]", "value": "inhibits cell viability"},
      {"measurement": "cell viability", "setting": "VU-SCC-059", "value": "inhibits cell viability"},
      {"measurement": "cell viability", "setting": "UM-SCC-11B", "value": "inhibits cell viability"},
      {"measurement": "lethality to melanoma or colorectal cancer cells", "setting": "[3]", "value": "lethal"}
    ]},
    {"molecule": "mimic 323-5p: miRIDIAN microRNA mimic (Dharmacon); AGGUGGUCCGUGGCGCGUUCGC (SEQ ID NO: 22) (listed as RNA, chemistry not given here)", "values": [
      {"measurement": "cell viability in tumour cell lines", "setting": "tumour cell lines", "value": "cause a decrease in all tumour cell lines"}
    ]},
    {"molecule": "shRNA ATM1: lentiviral pLKO.1 short-hairpin construct targeting ATM from the TRC library; probably SEQ ID NO: 355 (CCGGCCTGCCAACATACTTTAAGTACTCGAGTACTTAAAGTATGTTGGCAGGTTTTTG)", "values": [
      {"measurement": "toxicity in the tumour cell line as compared to the ciOKC cells (therapeutic window)", "setting": "VU-SCC-120 [4]", "value": "at least 8 times"}
    ]}
  ]
}
